The assay concerns bovine cardiac myofibrils. In words: Myofibril assay: PK/LDH-coupled steady-state ATPase activity of skinned bovine cardiac myofibrils. It is filed as biochemical. The note with it: Ca2+ activating to 75% of maximal rate. On the procedure: To evaluate the effect of compounds on the ATPase activity of full-length cardiac myosin in the context of the native sarcomere, skinned myofibril assays were performed. Bovine cardiac myofibrils were obtained by homogenizing bovine cardiac left ventricular tissue in the presence of a detergent such as triton X-100. Such treatment removes membranes and a majority of the soluble cytoplasmic proteins but leaves intact the cardiac sarcomeric acto-myosin apparatus. Myofibril preparations retain the ability to hydrolyze ATP in a Ca^2+ regulated manner. ATPase activities of such myofibril preparations in the presence and absence of compounds were assayed at Ca^2+ concentrations activating to a defined fraction of the maximal rate (i.e., […], 75%). Small molecule agents were assessed for their ability to inhibit the steady-state ATPase activity of bovine cardiac myofibrils using pyruvate kinase and lactate dehydrogenase (PK/LDH)-coupled enzyme system. This assay regenerates myosin-produced ADP into ATP by oxidizing NADH, producing an absorbance change at 340 nm. Prior to testing small molecule agents, the bovine cardiac myofibrils were assessed for their calcium responsiveness and the calcium concentration that achieves either a 50% (pCa50) or 75% (pCa75) activation of the myofibril system was chosen as the final condition for assessing the inhibitory activity of the small molecule agents. All enzymatic activity was measured in a buffered solution containing 12 mM PIPES (piperazine-N,N′-bis(2-ethanesulfonic acid), 2 mM magnesium chloride at pH 6.8 (PM 12 buffer). Final assay conditions were 1 mg/mL of bovine cardiac myofibrils, 4 U/mL pyruvate kinase, 6 U/mL lactate dehydrogenase, 50 μM ATP, 0.1 mg/mL BSA (bovine serum albumin), 10 ppm antifoam, 1 mM DTT, 0.5 mM NADH, 1.5 mM PEP, 0.6 mM EGTA, and an amount of CaCl2 sufficient to achieve either 50% or 75% activation of the myofibril ATPase activity. Results for compounds tested are provided in Table A. Compounds tested were prepared in accordance with the synthetic procedures described herein.
Take `CC(C)N1CC(=O)N(Cc2ccc(Cl)cc2)C(c2ccc(Cl)cc2)C1=O` (racemic) [Compound 288, 3-(4-chlorophenyl)-4-[(4-chlorophenyl)methyl]-1-(propan-2-yl)piperazine-2,5-dione]: the “CDMF75 IC15” value is 1.8 µM.
The value for `CC(=O)NCC1(C)C(=O)N(c2ncc(Cl)cc2F)CC(=O)N1Cc1ccc(C(F)(F)F)cc1` (racemic) [Compound 630, N-((4-(5-chloro-3-fluoropyridin-2-yl)-2-methyl-3,6-dioxo-1-(4-(trifluoromethyl)benzyl)piperazin-2-yl)methyl)acetamide] was 18.7 µM.
The value for `Cc1cnc(N2CC(=O)N(Cc3ccc(C(F)(F)F)cc3)C(C3COC3)C2=O)c(F)c1` (racemic) [Compound 691, 1-(3-fluoro-5-methylpyridin-2-yl)-3-(oxetan-3-yl)-4-(4-(trifluoromethyl)benzyl)piperazine-2,5-dione] was 27.6 µM.
The value for `COc1cnc(N2CC(=O)N(Cc3ccc(C(F)(F)F)cc3)C(C3COC3)C2=O)c(F)c1` (racemic) [Compound 703, 1-(3-fluoro-5-methoxypyridin-2-yl)-3-(oxetan-3-yl)-4-(4-(trifluoromethyl)benzyl)piperazine-2,5-dione] was 10.1 µM; that for `CC(C)N1CC(=O)N(Cc2ccc(Cl)cc2)C(c2ccc(Cl)cc2)C1=O` (single isomer, unassigned) [Compound 288B, 3-(4-chlorophenyl)-4-[(4-chlorophenyl)methyl]-1-(propan-2-yl)piperazine-2,5-dione] was more than 39 µM; that for `CC(C)N1CC(=O)N(Cc2ccc(Cl)cc2)C2(CCN(C(N)=O)C2)C1=O` (single isomer, unassigned) [Compound 367A, 6-[(4-chlorophenyl)methyl]-7,10-dioxo-9-(propan-2-yl)-2,6,9-triazaspiro[4.5]decane-2-carboxamide] was 8.8 µM.
For `CC(C)N1CC(=O)N(Cc2ccc(Cl)cc2)C2(CCN(C(N)=O)C2)C1=O` (single isomer, unassigned) [Compound 367B, 6-[(4-chlorophenyl)methyl]-7,10-dioxo-9-(propan-2-yl)-2,6,9-triazaspiro[4.5]decane-2-carboxamide], the “CDMF75 IC15” value is more than 39 µM.
Consider `CC(C)N1CC(=O)N(Cc2ccc(Cl)cc2)C2(CCN(c3ccccn3)C2)C1=O` (single isomer, unassigned) [Compound 373B, 6-[(4-chlorophenyl)methyl]-9-(propan-2-yl)-2-(pyridin-2-yl)-2,6,9-triazaspiro[4.5]decane-7,10-dione], for which the “CDMF75 IC15” value is more than 39 µM.
`O=C1CN(c2ccc(Cl)cc2F)C(=O)[C@]2(C[C@@H](O)C2)N1Cc1ccc(C(F)(F)F)cc1` (single isomer, unassigned) [Compound 483B]: the “CDMF75 IC15” value came out at 0.7 µM.
On to `COC(=O)[C@H]1C[C@]2(C1)C(=O)N(c1ccc(C#N)cc1F)CC(=O)N2Cc1ccc(Cl)cc1` (single isomer, unassigned) [Compound 488B], for which the “CDMF75 IC15” value was 0.2 µM.
The value for `N#Cc1ccc(N2CC(=O)N(Cc3ccc(Cl)cc3)[C@]3(C[C@H](C(=O)N4CCC(O)CC4)C3)C2=O)c(F)c1` (single isomer, unassigned) [Compound 492B] was 0.4 µM; that for `Cc1nc([C@H]2C[C@]3(C2)C(=O)N(C(C)C)CC(=O)N3Cc2ccc(C(F)(F)F)cc2)oc1C` (single isomer, unassigned) [Compound 500B] was 35.5 µM.
The value for `CC(=O)NCC1(C)C(=O)N(c2ncc(Cl)cc2F)CC(=O)N1Cc1ccc(C(F)(F)F)cc1` (single isomer, unassigned) [Compound 630A, N-((4-(5-chloro-3-fluoropyridin-2-yl)-2-methyl-3,6-dioxo-1-(4-(trifluoromethyl)benzyl)piperazin-2-yl)methyl)acetamide] was 9.7 µM.
The value for `CC(=O)NCC1(C)C(=O)N(c2ncc(Cl)cc2F)CC(=O)N1Cc1ccc(C(F)(F)F)cc1` (single isomer, unassigned) [Compound 630B, N-((4-(5-chloro-3-fluoropyridin-2-yl)-2-methyl-3,6-dioxo-1-(4-(trifluoromethyl)benzyl)piperazin-2-yl)methyl)acetamide] was more than 39 µM; that for `Cc1cnc(N2CC(=O)N(Cc3ccc(C(F)(F)F)cc3)C(C3COC3)C2=O)c(F)c1` (single isomer, unassigned) [Compound 691A, 1-(3-fluoro-5-methylpyridin-2-yl)-3-(oxetan-3-yl)-4-(4-(trifluoromethyl)benzyl)piperazine-2,5-dione] was 12.06 µM; that for `Cc1cnc(N2CC(=O)N(Cc3ccc(C(F)(F)F)cc3)C(C3COC3)C2=O)c(F)c1` (single isomer, unassigned) [Compound 691B, 1-(3-fluoro-5-methylpyridin-2-yl)-3-(oxetan-3-yl)-4-(4-(trifluoromethyl)benzyl)piperazine-2,5-dione] was more than 39 µM.
Consider `COc1cnc(N2CC(=O)N(Cc3ccc(C(F)(F)F)cc3)C(C3COC3)C2=O)c(F)c1` (single isomer, unassigned) [Compound 703A, 1-(3-fluoro-5-methoxypyridin-2-yl)-3-(oxetan-3-yl)-4-(4-(trifluoromethyl)benzyl)piperazine-2,5-dione], for which the “CDMF75 IC15” value came out at 4.0 µM.
The value for `COc1cnc(N2CC(=O)N(Cc3ccc(C(F)(F)F)cc3)C(C3COC3)C2=O)c(F)c1` (single isomer, unassigned) [Compound 703B, 1-(3-fluoro-5-methoxypyridin-2-yl)-3-(oxetan-3-yl)-4-(4-(trifluoromethyl)benzyl)piperazine-2,5-dione] was 37.2 µM; that for `O=C1C(C2CC(O)C2)N(Cc2ccc(C(F)(F)F)cc2)C(=O)CN1c1ncc(Cl)cc1F` (single isomer, unassigned) [Compound 740A, 1-(5-chloro-3-fluoropyridin-2-yl)-3-(3-hydroxycyclobutyl)-4-(4-(trifluoromethyl)benzyl)piperazine-2,5-dione] was 1.1 µM; that for `O=C1C(C2CC(O)C2)N(Cc2ccc(C(F)(F)F)cc2)C(=O)CN1c1ncc(Cl)cc1F` (single isomer, unassigned) [Compound 740B, 1-(5-chloro-3-fluoropyridin-2-yl)-3-(3-hydroxycyclobutyl)-4-(4-(trifluoromethyl)benzyl)piperazine-2,5-dione] was 0.97 µM.
The value for `O=C1C(C2CC(O)C2)N(Cc2ccc(C(F)(F)F)cc2)C(=O)CN1c1ncc(Cl)cc1F` (single isomer, unassigned) [Compound 740C, 1-(5-chloro-3-fluoropyridin-2-yl)-3-(3-hydroxycyclobutyl)-4-(4-(trifluoromethyl)benzyl)piperazine-2,5-dione] was more than 39 µM; that for `O=C1C(C2CC(O)C2)N(Cc2ccc(C(F)(F)F)cc2)C(=O)CN1c1ncc(Cl)cc1F` (single isomer, unassigned) [Compound 740D, 1-(5-chloro-3-fluoropyridin-2-yl)-3-(3-hydroxycyclobutyl)-4-(4-(trifluoromethyl)benzyl)piperazine-2,5-dione] was more than 39 µM.
The value for `O=C1C(CO)N(Cc2ccc(C(F)(F)F)cc2)C(=O)CN1c1ncc(Cl)cc1F` (single isomer, unassigned) [Compound 857A, 1-(5-chloro-3-fluoropyridin-2-yl)-3-(hydroxymethyl)-4-(4-(trifluoromethyl)benzyl)piperazine-2,5-dione] was 5.3 µM; that for `O=C1C(CO)N(Cc2ccc(C(F)(F)F)cc2)C(=O)CN1c1ncc(Cl)cc1F` (single isomer, unassigned) [Compound 857B, 1-(5-chloro-3-fluoropyridin-2-yl)-3-(hydroxymethyl)-4-(4-(trifluoromethyl)benzyl)piperazine-2,5-dione] was more than 39 µM.
In the case of `CCOC(=O)C1CC2(C1)C(=O)N(c1ncc(Cl)cc1F)CC(=O)N2Cc1ccc(C(F)(F)F)cc1` (single isomer, unassigned) [Compound 859A, ethyl 8-(5-chloro-3-fluoropyridin-2-yl)-6,9-dioxo-5-(4-(trifluoromethyl)benzyl)-5,8-diazaspiro[3.5]nonane-2-carboxylate], the “CDMF75 IC15” value was found to be 0.6 µM.
For the compound `CCOC(=O)C1CC2(C1)C(=O)N(c1ncc(Cl)cc1F)CC(=O)N2Cc1ccc(C(F)(F)F)cc1` (single isomer, unassigned) [Compound 859B, ethyl 8-(5-chloro-3-fluoropyridin-2-yl)-6,9-dioxo-5-(4-(trifluoromethyl)benzyl)-5,8-diazaspiro[3.5]nonane-2-carboxylate], the “CDMF75 IC15” value is 0.3 µM.
Consider `O=C1C(C2COC2)N(Cc2ccc(C(F)(F)F)cc2)C(=O)CN1c1ncc(Cl)cc1F` (single isomer, unassigned) [Compound 861B, 1-(5-chloro-3-fluoropyridin-2-yl)-3-(oxetan-3-yl)-4-(4-(trifluoromethyl)benzyl)piperazine-2,5-dione], for which the “CDMF75 IC15” value came to 5.8 µM.

(Values after patent US11414424B2, “Cardiac sarcomere inhibitors” (Cytokinetics, Inc., priority 2018, dated 2022).)
